In PubChem BioAssay AID2060509 (Molecular Pharmacology Branch, DTP, NCI, 2025):

Tested on: 485176-168-R4-J1-PDC spheroids with HUVEC/MSC, viability
Test: Anticancer human tumor 485176-168-R4-J1-PDC patient-derived pancreatic adenocarcinoma cell line growth inhibition [GQUAD]
Details: for IC50: curve of first compound; for viability, T/C: stronger effect = lower value; active = viability on the fitted dose curve at most 10% of control; inactive = the rest
Outline: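 Tumor cells were grown as complex spheroids with HUVEC endothelial cells and mesenchymal stem cells as stroma. G-quadruplex stabilizers were combined with targeted agents over half-log dilutions from near the clinical Cmax, or from 10 microM.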

[1] = second compound 0.0316 µM, first compound 0.0316 µM
[2] = second compound 0.0316 µM, first compound 0.1 µM
[3] = second compound 0.0316 µM, first compound 0.316 µM
[4] = second compound 0.0316 µM, first compound 1 µM
[5] = second compound 0.0316 µM, first compound 3.16 µM
[6] = second compound 0.0316 µM, first compound 10 µM
[7] = second compound 0.1 µM, first compound 0.0316 µM
[8] = second compound 0.1 µM, first compound 0.1 µM
[9] = second compound 0.1 µM, first compound 0.316 µM
[10] = second compound 0.1 µM, first compound 1 µM
[11] = second compound 0.1 µM, first compound 3.16 µM
[12] = second compound 0.1 µM, first compound 10 µM
[13] = second compound 0.316 µM, first compound 0.0316 µM
[14] = second compound 0.316 µM, first compound 0.1 µM
[15] = second compound 0.316 µM, first compound 0.316 µM
[16] = second compound 0.316 µM, first compound 1 µM
[17] = second compound 0.316 µM, first compound 3.16 µM
[18] = second compound 0.316 µM, first compound 10 µM
[19] = second compound 1 µM, first compound 0.0316 µM
[20] = second compound 1 µM, first compound 0.1 µM
[21] = second compound 1 µM, first compound 0.316 µM
[22] = second compound 1 µM, first compound 1 µM
[23] = second compound 1 µM, first compound 3.16 µM
[24] = second compound 1 µM, first compound 10 µM
[25] = second compound 3.16 µM, first compound 0.0316 µM
[26] = second compound 3.16 µM, first compound 0.1 µM
[27] = second compound 3.16 µM, first compound 0.316 µM
[28] = second compound 3.16 µM, first compound 1 µM
[29] = second compound 3.16 µM, first compound 3.16 µM
[30] = second compound 3.16 µM, first compound 10 µM
[31] = second compound 10 µM, first compound 0.0316 µM
[32] = second compound 10 µM, first compound 0.1 µM
[33] = second compound 10 µM, first compound 0.316 µM
[34] = second compound 10 µM, first compound 1 µM
[35] = second compound 10 µM, first compound 3.16 µM
[36] = second compound 10 µM, first compound 10 µM
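Also: spheroids exposed to compounds for seven days before readout.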
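For viability, T/C in this document: percent viability relative to DMSO vehicle control wells as 100%.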

COc1cc(C2c3cc4c(cc3C(OC3OC5COC(C)OC5C(O)C3O)C3COC(=O)C23)OCO4)cc(OC)c1O (centres undefined) + Cc1[nH]c2ccc(F)cc2c1-c1nc2c3cccnc3c3ncccc3c2[nH]1
0.65 µM: IC50 (second compound 0.316 µM)
inactive: viability, T/C [1] 89.3% | viability, T/C [2] 63% | viability, T/C [3] 43.9% | viability, T/C [4] 43% | viability, T/C [5] 29.5% | viability, T/C [6] 12.7% | viability, T/C [7] 92.3% | viability, T/C [8] 68.7% | viability, T/C [9] 37.5% | viability, T/C [10] 42.1% | viability, T/C [11] 24% | viability, T/C [12] 12.5% | viability, T/C [13] 86.1% | viability, T/C [14] 97.7% | viability, T/C [15] 52.9% | viability, T/C [16] 44.4% | viability, T/C [17] 29.4% | viability, T/C [18] 13% | viability, T/C [19] 89.6% | viability, T/C [20] 67.7% | viability, T/C [21] 47.4% | viability, T/C [22] 44.5% | viability, T/C [23] 24.9% | viability, T/C [24] 15.1% | viability, T/C [25] 77.3% | viability, T/C [26] 65.7% | viability, T/C [27] 43.6% | viability, T/C [28] 42.8% | viability, T/C [29] 28.7% | viability, T/C [30] 13% | viability, T/C [31] 96.2% | viability, T/C [32] 69.9% | viability, T/C [33] 44% | viability, T/C [34] 44.8% | viability, T/C [35] 24.9% | viability, T/C [36] 13.2%
0.344 µM: IC50 (second compound 3.16 µM) | IC50 (second compound 10 µM)
0.317 µM: IC50 (second compound 0.0316 µM)
0.403 µM: IC50 (second compound 1 µM)
0.266 µM: IC50 (second compound 0.1 µM)

Cc1cccc(N(C)C(=O)C2C(O)CCN2c2nc(C)cc(C(F)(F)F)c2C#N)c1 (centres undefined) + Cc1[nH]c2ccc(F)cc2c1-c1nc2c3cccnc3c3ncccc3c2[nH]1
inactive: viability, T/C [1] 102% | viability, T/C [2] 95.1% | viability, T/C [3] 99.2% | viability, T/C [4] 89% | viability, T/C [5] 94.1% | viability, T/C [6] 99.2% | viability, T/C [7] 85.9% | viability, T/C [8] 95.4% | viability, T/C [9] 93.1% | viability, T/C [10] 99% | viability, T/C [11] 109% | viability, T/C [12] 114% | viability, T/C [13] 93.1% | viability, T/C [14] 108% | viability, T/C [15] 103% | viability, T/C [16] 92.2% | viability, T/C [17] 93.7% | viability, T/C [18] 96.7% | viability, T/C [19] 87% | viability, T/C [20] 100% | viability, T/C [21] 84.6% | viability, T/C [22] 85.3% | viability, T/C [23] 99.8% | viability, T/C [24] 94.1% | viability, T/C [25] 95.5% | viability, T/C [26] 97.1% | viability, T/C [27] 84.5% | viability, T/C [28] 89.2% | viability, T/C [29] 95.1% | viability, T/C [30] 92.1% | viability, T/C [31] 80.3% | viability, T/C [32] 92% | viability, T/C [33] 80.1% | viability, T/C [34] 90% | viability, T/C [35] 78.2% | viability, T/C [36] 99.1%
> 10 µM: IC50 (second compound 0.0316 µM) | IC50 (second compound 0.1 µM) | IC50 (second compound 0.316 µM) | IC50 (second compound 1 µM) | IC50 (second compound 3.16 µM) | IC50 (second compound 10 µM)
